The text below walks through data of ChEMBL document CHEMBL3774357, “Discovery of potent and selective CDK8 inhibitors from an HSP90 pharmacophore” (Bioorg Med Chem Lett, 2016).

Broadly, the kinetic solubility is the concentration staying in solution when a stock, usually in DMSO, is diluted into the medium. Usually bioavailability stands for the share of a dose that reaches the circulation, judged against a reference dose that is usually intravenous. Usually solubility stands for the concentration that dissolves in the medium under given conditions.

≈ marks a conversion by molar mass, not a printed value.

A short description of data set [1]: physchem.
A short description of data set [2]: Thermodynamic solubility of the compound. It is filed as physicochemical. Particulars: read-out: Therm_solubility.
A short description of data set [3]: Volume of distribution at steady state in monkey. The conditions noted are these: rhesus monkey, in vivo; read-out: Vdss. It is filed as ADME, organism-based, Macaca mulatta.
Data set [4] is described as follows: Oral bioavailability in mouse. It is filed as ADME, organism-based. The conditions noted are these: in vivo.
The nature of data set [5]: Oral bioavailability in rat. Format: ADME, organism-based. The conditions noted are these: in vivo.
Data set [6] is described as follows: Oral bioavailability in dog. It is filed as ADME, organism-based, Canis lupus familiaris. Particulars: in vivo.
Data set [7] can be described thus: Oral bioavailability in monkey. The conditions noted are these: rhesus monkey, in vivo. It is filed as ADME, organism-based, Macaca mulatta.
The nature of data set [8]: Solubility of the compound in PBS at pH 7.4. Format: physicochemical.
The nature of data set [9]: Solubility of the compound in FaSSIF at pH 6.4. Format: physicochemical.
Data set [10] in a line: Solubility of the compound in FeSSIF at pH 5.2. It is filed as physicochemical.
Data set [11] in a line: Volume of distribution at steady state in mouse. Format: ADME, organism-based. Particulars: in vivo, read-out: Vdss.
Data set [12] in a line: Volume of distribution at steady state in rat. Format: ADME, organism-based. Particulars: in vivo, read-out: Vdss.
The nature of data set [13]: Volume of distribution at steady state in dog. The conditions noted are these: in vivo, read-out: Vdss. Format: ADME, organism-based, Canis lupus familiaris.

As for `Cn1cc(-c2ccc(Cc3n[nH]c4ccc(NS(C)(=O)=O)cc34)cc2)cn1`, the solubility (kinetic) in [1] came out at 153 µM (≈ 58.4 µg/mL).

`COC1CN(C(=O)c2ccc3[nH]nc(Cc4ccc(-c5cnn(C)c5)cc4)c3c2)C1` came in with a solubility (kinetic) in [1] of 170 µM (≈ 68.2 µg/mL). `Cn1cc(-c2ccc(Cc3n[nH]c4ccc(S(=O)(=O)NC5CC5)cc34)cc2)cn1` returned a kinetic solubility in data set [1] of 107 µM (≈ 43.6 µg/mL). As to `Cn1cc(-c2ccc(Cc3n[nH]c4ccc(N5CCOCC5)cc34)cc2)cn1`, the kinetic solubility in data set [1] came to 153 µM (≈ 57.1 µg/mL). On to `Cn1cc(-c2ccc(Cc3n[nH]c4ccc(-c5nccn5C)cc34)cc2)cn1`, for which the kinetic solubility in data set [1] was 96 µM (≈ 35.4 µg/mL).

Compound `CNC(=O)c1ccc2[nH]nc(CC(C)C)c2c1` had a kinetic solubility in [1] of more than 200 µM. Turning to `Cn1cc(-c2ccc(Cc3n[nH]c4ccc(C(=O)N5CCOCC5)cc34)cc2)cn1`, in data set [1], the solubility (kinetic) was found to be 170 µM (≈ 68.2 µg/mL). On the same count and under the same terms, the value for `CNC(=O)c1ccc2[nH]nc(Cc3ccc4cnn(C)c4c3)c2c1` was 192 µM (≈ 61.3 µg/mL); that for `COC1CN(C(=O)c2ccc3[nH]nc(Cc4ccc5c(cnn5C)c4)c3c2)C1` was more than 200 µM. Still for that read-out and setting: the same measure for `Cn1ncc2cc(Cc3n[nH]c4ccc(C(=O)N5CC[C@H](O)C5)cc34)ccc21`: more than 200 µM; for `CNC(=O)c1ccc2[nH]nc(Cc3ccc(OC)c(OC)c3)c2c1`: 176 µM (≈ 57.3 µg/mL); for `Cn1ncc2cc(Cc3n[nH]c4ccc(C(=O)N5CCC(F)(F)C5)cc34)ccc21`: 157 µM (≈ 62.1 µg/mL).

On to `Cn1cc(-c2ccc(Cc3n[nH]c4ccc(C(=O)N5CC(F)(F)C5)cc34)cc2)cn1`, for which the solubility (kinetic) in [1] was 89 µM (≈ 36.3 µg/mL). As for `Cn1cc(-c2ccc(Cc3n[nH]c4ccc(C(=O)N5CC[C@@H](O)C5)cc34)cc2)cn1`, in data set [1], the solubility (kinetic) amounted to 181 µM (≈ 72.7 µg/mL). As for `Cn1cc(-c2ccc(Cc3n[nH]c4ccc(C(=O)N5CC[C@H](O)C5)cc34)cc2)cn1`, the solubility (kinetic) in data set [1] is 200 µM (≈ 80.3 µg/mL). The compound `Cn1cc(-c2ccc(Cc3n[nH]c4ccc(C(=O)N5CCCCC5)cc34)cc2)cn1` displayed a solubility (kinetic) in [1] of 106 µM (≈ 42.3 µg/mL). `Cn1cc(-c2ccc(Cc3n[nH]c4ccc(C(=O)N5CC(O)C5)cc34)cc2)cn1` returned a kinetic solubility in data set [1] of 196 µM (≈ 75.9 µg/mL). With `CC(=O)Nc1ccc2[nH]nc(Cc3ccc(-c4cnn(C)c4)cc3)c2c1`, in data set [1], the kinetic solubility was 115 µM (≈ 39.7 µg/mL). In the case of `Cn1cnc(-c2ccc3[nH]nc(Cc4ccc(-c5cnn(C)c5)cc4)c3c2)c1`, in data set [1], the kinetic solubility amounted to 6 µM (≈ 2.21 µg/mL). For `CNC(=O)c1ccc2[nH]nc(Cc3ccc(-c4cnn(C)c4)cc3)c2c1`, the solubility thermodynamic in data set [2] was determined as 6 µg/mL (≈ 17.4 µM). Moreover, the kinetic solubility in [1] came to 169 µM (≈ 58.4 µg/mL). In turn, `Cn1cc(-c2ccc(Cc3n[nH]c4ccc(N5CCCC5=O)cc34)cc2)cn1` registered a kinetic solubility in data set [1] of 147 µM (≈ 54.6 µg/mL). Same read-out and setting: the same measure for `Cn1cc(-c2ccc(Cc3n[nH]c4ccc(C(=O)N5CCNCC5)cc34)cc2)cn1`: 186 µM (≈ 74.5 µg/mL). On to `CNC(=O)c1ccc2[nH]nc(Cc3ccc4c(cnn4C)c3)c2c1`, for which the Vd in [3] turned out to be 0.95 L/kg; in data set [11], 0.69 L/kg; in [12], 0.85 L/kg; in data set [13], 1.8 L/kg. Besides, the bioavailability in data set [4] stood at 50%; in [5] it was 88%; in data set [6] it was 85%; in data set [7] it was 26%. Moreover, the solubility in data set [8] came out at 6 µg/mL (≈ 18.8 µM); in data set [9] it was 32 µg/mL (≈ 100 µM); in data set [10], 59 µg/mL (≈ 185 µM). Also, in data set [2], the solubility thermodynamic was determined as 6 µg/mL (≈ 18.8 µM). The solubility (kinetic) in data set [1] was more than 200 µM.

Turning to `CC(=O)NCCNc1ccc2[nH]nc(Cc3ccc(-c4cnn(C)c4)cc3)c2c1`, the solubility (kinetic) in data set [1] was 183 µM (≈ 71.1 µg/mL).

In the case of `Cn1cc(-c2ccc(Cc3n[nH]c4ccc(C(N)=O)cc34)cc2)cn1`, the solubility (kinetic) in data set [1] amounted to 173 µM (≈ 57.3 µg/mL). Still for that read-out and setting: the same measure for `Cn1cc(-c2ccc(Cc3n[nH]c4ccc(C(=O)NC5CC5)cc34)cc2)cn1`: 76 µM (≈ 28.2 µg/mL); for `Cn1cc(-c2ccc(Cc3n[nH]c4ccc(C(=O)N5CCC(F)(F)C5)cc34)cc2)cn1`: 104 µM (≈ 43.8 µg/mL). As for `CNC(=O)c1ccc2[nH]nc(Cc3ccc(-c4cnn(CC(C)(C)O)c4)cc3)c2c1`, in data set [2], the solubility thermodynamic was 26 µg/mL (≈ 64.4 µM). The kinetic solubility in data set [1] turned out to be 182 µM (≈ 73.4 µg/mL). In turn, `Cn1cc(-c2ccc(Cc3n[nH]c4ccc(-c5cc(N)ccn5)cc34)cc2)cn1` gave a solubility (kinetic) in data set [1] of 53 µM (≈ 20.2 µg/mL). Still for that read-out and setting: the same measure for `CNC(=O)c1ccc2[nH]nc(Cc3cccc(C)c3)c2c1`: 167 µM (≈ 46.7 µg/mL).
